Source: ChEMBL document CHEMBL1201862, “PubChem BioAssay data set” (2004)
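Assay format: 96-well plates, 48-hour exposure. Abbreviation: GI50, concentration required for 50% inhibition of growth.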 Calls of active or inactive are those of the source. No stated cut-off is given here; in the data, active = GI50 up to about 1.1 µM and inactive = higher.

Columns and labels:
Assay in all cases: NCI anticancer screen, dose series, 48 h
Malme-3M = tested on: Malme-3M
SK-MEL-2 = tested on: SK-MEL-2
OVCAR-8 = tested on: OVCAR-8
M19-MEL = tested on: M19-MEL
MOLT-4 = tested on: MOLT-4
HOP-92 = tested on: HOP-92
NCI-H23 = tested on: NCI-H23
HT-29 = tested on: HT-29
LOX IMVI = tested on: LOX IMVI
UACC-62 = tested on: UACC-62
KM12 = tested on: KM12
SK-MEL-5 = tested on: SK-MEL-5
A498 = tested on: A498
OVCAR-4 = tested on: OVCAR-4
OVCAR-3 = tested on: OVCAR-3
KM-20L2 = tested on: KM-20L2
NCI-H522 = tested on: NCI-H522
HOP-62 = tested on: HOP-62
SNB-75 = tested on: SNB-75
MDA-MB-435 = tested on: MDA-MB-435

Measured: GI50

COc1cc(/C=C2/C(=O)N(C(=O)c3ccc(Cl)cc3)N=C2C)cc(OC)c1OC
inactive: Malme-3M > 100 µM | SK-MEL-2 > 100 µM | OVCAR-8 > 100 µM | M19-MEL > 100 µM | MOLT-4 > 100 µM | HOP-92 > 100 µM | NCI-H23 > 100 µM | HT-29 > 100 µM | LOX IMVI > 100 µM | UACC-62 > 100 µM | KM12 > 100 µM | SK-MEL-5 > 100 µM | A498 > 100 µM | OVCAR-4 > 100 µM | OVCAR-3 > 100 µM | KM-20L2 > 100 µM | NCI-H522 > 100 µM

CC1=C2C=CC(=O)C[C@@]2(C)CCC1
inactive: HOP-62 > 100 µM | Malme-3M > 100 µM | SK-MEL-2 > 100 µM | OVCAR-8 > 100 µM | M19-MEL > 100 µM | MOLT-4 > 100 µM | HOP-92 > 100 µM | NCI-H23 > 100 µM | HT-29 > 100 µM | LOX IMVI > 100 µM | UACC-62 > 100 µM | SNB-75 69.2 µM | KM12 > 100 µM | SK-MEL-5 > 100 µM | A498 > 100 µM | OVCAR-4 > 100 µM | OVCAR-3 > 100 µM | NCI-H522 > 100 µM

Cc1nc2ccccc2c(=O)n1/N=C(\N=N\c1ccccc1Cl)c1ccccc1Cl
inactive: HOP-62 34.8 µM | OVCAR-8 > 100 µM | M19-MEL > 100 µM | MOLT-4 22.1 µM | HOP-92 13 µM | NCI-H23 34 µM | HT-29 53.6 µM | LOX IMVI 86.5 µM | UACC-62 58.9 µM | SK-MEL-5 63.1 µM | A498 43 µM | KM-20L2 76.7 µM | NCI-H522 22.9 µM

Nc1ccc(C(=O)N/C(=C\c2ccc3c(c2)OCO3)c2nc3c(O)nc(S)nc3[nH]2)cc1
inactive: Malme-3M > 100 µM | SK-MEL-2 > 100 µM | OVCAR-8 > 100 µM | M19-MEL > 100 µM | MOLT-4 > 100 µM | HOP-92 75.5 µM | NCI-H23 > 100 µM | HT-29 > 100 µM | UACC-62 > 100 µM | KM12 > 100 µM | SK-MEL-5 > 100 µM | OVCAR-4 > 100 µM | OVCAR-3 > 100 µM | KM-20L2 > 100 µM | NCI-H522 > 100 µM

CCCCC(C)/C=C/C(O)=C1\C(=O)O/C(=C\C(=O)O)C1=O (configuration not stated)
inactive: HOP-62 > 100 µM | Malme-3M > 100 µM | SK-MEL-2 > 100 µM | OVCAR-8 > 100 µM | MOLT-4 > 100 µM | NCI-H23 > 100 µM | HT-29 > 100 µM | LOX IMVI > 100 µM | UACC-62 > 100 µM | SNB-75 > 100 µM | KM12 > 100 µM | SK-MEL-5 > 100 µM | A498 > 100 µM | OVCAR-4 > 100 µM | OVCAR-3 > 100 µM | KM-20L2 > 100 µM

COc1ccc2[nH]c3c(C)c4cc[n+](COC(=O)c5ccccc5)cc4c(C)c3c2c1
inactive: HOP-62 2.66 µM | Malme-3M 1.43 µM | OVCAR-3 1.48 µM
active: OVCAR-8 0.0851 µM | M19-MEL 0.381 µM | MOLT-4 0.0379 µM | HOP-92 0.375 µM | NCI-H23 0.428 µM | HT-29 0.117 µM | LOX IMVI 0.21 µM | UACC-62 1.09 µM | SNB-75 0.703 µM | KM12 0.61 µM | A498 1.11 µM | OVCAR-4 0.168 µM | KM-20L2 0.282 µM | NCI-H522 0.391 µM

O=c1c2ccccc2nc(-c2ccccc2)n1NC(=S)Nc1ccccc1
inactive: HOP-62 > 100 µM | Malme-3M > 100 µM | SK-MEL-2 > 100 µM | OVCAR-8 > 100 µM | M19-MEL 94.4 µM | MOLT-4 > 100 µM | HOP-92 > 100 µM | NCI-H23 > 100 µM | HT-29 > 100 µM | LOX IMVI 91 µM | UACC-62 > 100 µM | SNB-75 38.3 µM | KM12 > 100 µM | SK-MEL-5 89.1 µM | A498 > 100 µM | OVCAR-4 > 100 µM | NCI-H522 > 100 µM

CC1SC2=NC3=C(c4ccccc4C3=O)C(c3ccc(F)cc3)N2C1=O (configuration not stated)
inactive: HOP-62 > 100 µM | Malme-3M > 100 µM | SK-MEL-2 > 100 µM | OVCAR-8 > 100 µM | M19-MEL > 100 µM | MOLT-4 > 100 µM | HOP-92 50.7 µM | NCI-H23 > 100 µM | HT-29 > 100 µM | UACC-62 64.1 µM | SNB-75 35.6 µM | KM12 > 100 µM | SK-MEL-5 > 100 µM | A498 > 100 µM | OVCAR-4 42.5 µM | OVCAR-3 > 100 µM | KM-20L2 > 100 µM | NCI-H522 26.5 µM

Cn1c(=O)n(C2(C)C[Se]C2)c2ccccc21
inactive: HOP-62 > 100 µM | SK-MEL-2 > 100 µM | OVCAR-8 > 100 µM | M19-MEL > 100 µM | MOLT-4 > 100 µM | HOP-92 > 100 µM | NCI-H23 > 100 µM | HT-29 > 100 µM | LOX IMVI > 100 µM | UACC-62 > 100 µM | SNB-75 > 100 µM | KM12 > 100 µM | SK-MEL-5 > 100 µM | A498 > 100 µM | OVCAR-4 > 100 µM | KM-20L2 > 100 µM | NCI-H522 > 100 µM

Cc1cc2oc(-c3ccccc3)c(C)c(=O)c2c2c1OC(C)(C)S2
inactive: HOP-62 > 100 µM | Malme-3M > 100 µM | SK-MEL-2 > 100 µM | OVCAR-8 > 100 µM | M19-MEL > 100 µM | MOLT-4 60.3 µM | HOP-92 27.2 µM | NCI-H23 > 100 µM | HT-29 34.2 µM | LOX IMVI > 100 µM | UACC-62 > 100 µM | SNB-75 > 100 µM | KM12 43.7 µM | SK-MEL-5 68.7 µM | OVCAR-4 > 100 µM | OVCAR-3 > 100 µM | KM-20L2 55.5 µM | NCI-H522 72.3 µM

COc1ccc(Nc2nc(C#N)c(N)s2)cc1
inactive: HOP-62 46.8 µM | Malme-3M 91.2 µM | SK-MEL-2 33.4 µM | OVCAR-8 78.5 µM | MOLT-4 > 10 µM | HOP-92 > 100 µM | NCI-H23 22.5 µM | HT-29 46.8 µM | LOX IMVI 21.4 µM | UACC-62 23.1 µM | SNB-75 > 100 µM | KM12 29.9 µM | OVCAR-4 83.2 µM | OVCAR-3 > 100 µM | KM-20L2 38.5 µM | NCI-H522 22.8 µM

O=C(O)NC(c1ccccc1)C(NC(=O)c1ccccc1)c1ccccc1 (configuration not stated)
inactive: HOP-62 > 100 µM | Malme-3M > 100 µM | SK-MEL-2 > 100 µM | OVCAR-8 > 100 µM | M19-MEL > 100 µM | HOP-92 > 100 µM | NCI-H23 > 100 µM | HT-29 > 100 µM | LOX IMVI 61.8 µM | UACC-62 > 100 µM | SNB-75 > 100 µM | KM12 > 100 µM | A498 > 100 µM | OVCAR-4 > 100 µM | OVCAR-3 > 100 µM | KM-20L2 > 100 µM

CCOC(=O)C(C(=O)OCC)P(=S)(S)c1ccccc1 (configuration not stated)
inactive: HOP-62 > 100 µM | Malme-3M > 100 µM | SK-MEL-2 > 100 µM | OVCAR-8 > 100 µM | M19-MEL > 100 µM | MOLT-4 > 100 µM | HOP-92 > 100 µM | NCI-H23 > 100 µM | HT-29 > 100 µM | LOX IMVI > 100 µM | UACC-62 > 100 µM | KM12 > 100 µM | SK-MEL-5 > 100 µM | A498 > 100 µM | OVCAR-4 > 100 µM | KM-20L2 > 100 µM | NCI-H522 > 100 µM

OC1CCC[C@@H]1Sc1ccccc1 (some centres not stated)
inactive: HOP-62 > 100 µM | SK-MEL-2 > 100 µM | OVCAR-8 > 100 µM | M19-MEL > 100 µM | MOLT-4 > 100 µM | HOP-92 > 100 µM | NCI-H23 > 100 µM | LOX IMVI > 100 µM | UACC-62 57.8 µM | SNB-75 > 100 µM | KM12 > 100 µM | SK-MEL-5 > 100 µM | A498 > 100 µM | OVCAR-4 > 100 µM | OVCAR-3 > 100 µM | KM-20L2 > 100 µM

O=C1c2cccnc2-c2nccc3c2c1nc1ccccc13 [ASCIDIDEMIN]
active: HOP-62 0.097 µM | MDA-MB-435 0.19 µM | Malme-3M 0.231 µM | SK-MEL-2 0.184 µM | OVCAR-8 0.0505 µM | MOLT-4 0.692 µM | HOP-92 0.49 µM | NCI-H23 0.172 µM | LOX IMVI 0.0512 µM | UACC-62 0.224 µM | SNB-75 0.389 µM | KM12 0.183 µM | SK-MEL-5 0.0583 µM | A498 0.27 µM | OVCAR-4 1.03 µM | OVCAR-3 0.0318 µM | NCI-H522 0.0975 µM
inactive: HT-29 1.19 µM

CC1CC(C)(O)CC(C(O)CC2CC(=O)NC(=O)C2)C1=O (configuration not stated) [RESACTIN A]
active: HOP-62 0.027 µM | MDA-MB-435 0.0432 µM | Malme-3M 0.0546 µM | SK-MEL-2 0.0585 µM | OVCAR-8 0.0266 µM | MOLT-4 0.0151 µM | HOP-92 < 0.02 µM | NCI-H23 0.0413 µM | HT-29 0.037 µM | LOX IMVI 0.0283 µM | UACC-62 0.0413 µM | SNB-75 0.0225 µM | KM12 0.0327 µM | SK-MEL-5 0.0132 µM | A498 0.067 µM | OVCAR-4 0.0447 µM | OVCAR-3 0.0566 µM | NCI-H522 < 0.0135 µM
